Results: article PMC7249060, “The Antiproliferative Effects of Flavonoid MAO Inhibitors on Prostate Cancer Cells” (Molecules, 2020)

How the values were obtained:
LNCaP cells [1] = test: Viability screen assay, resazurin, 24 h; format: cell-based, human; details: 50 μM, 90% viability as margin of cytotoxicity
Protocol: We examined the cytotoxic effects of all 20 synthesized KKRs on the three human PCa cell lines LNCaP, DU145, and PC3, after a 24 h exposure period. Non-toxic TAX was used for comparison. Briefly, cultured cells were seeded in black transparent bottom 96-well microplates at 50,000 cells/175-µL/well in experimental media (RPMI1640 for LNCaP, EMEM for DU145, and DMEM/F12K for PC3), supplied with 5% FBS and 1% P/S. Wells of media without cells were considered blanks and negative controls. The plates were incubated overnight at 37 °C in 5% CO2 to allow cell attachment. For each compound, a working solution of 8X KKR in sterile […] HEPES in HBSS pH buffer of 7.4 was prepared for a final concentration of 50 μM each. The three attached cell types were treated immediately with the related buffer being added to the control wells. A sterile fluorescence-based solution of the resazurin reagent of 0.5 mg/mL in HBSS was prepared. After 24 h, the cells were exposed to 15% v/v of the sterile resazurin reagent, and the plates were re-incubated for 4.5 h to allow redox reaction. All plates were read under 530/590-nm excitation/emission wavelengths using Bio-Tek Synergy HTX Multi-reader as a microplate fluorescence reader.

LNCaP cells [2] = test: Antiproliferation screen assay, resazurin, 72 h; format: cell-based, human; details: 50 μM
Protocol: (§1) In this screen, we examined the growth inhibitory effects of all synthesized KKRs on the three human PCa cell lines LNCaP, DU145, and PC3. The antiproliferative clinical drug TAX of 0.25 μM was used as a positive control. Additionally, different standards of MAO-Is and FLUT were tested for their effect on the LNCaP cells. Briefly, the procedures and materials used were the same as for the viability assay except for the following—cultured cells were seeded at 10,000 cells/175-µL/well related experimental media, and the resazurin solution was added after 72 h of incubation with the compounds of 50 μM each.

PC3 cells [3] = test: Antiproliferation screen assay, resazurin, 72 h; format: cell-based, human; details: 50 μM
Protocol: as §1

DU145 cells [4] = test: Antiproliferation screen assay, resazurin, 72 h; format: cell-based, human; details: 50 μM
Protocol: as §1

hMAO-B = target: T1, hMAO-B (Homo sapiens, UniProt P27338); test: MAO-Glow luminescence screen of KKRs at 100 μM; format: biochemical; details: 100 μM screen
T1 construct: purchased Sigma-Aldrich Co. (St. Louis, MO, USA)
T1 sequence (P27338 1-520): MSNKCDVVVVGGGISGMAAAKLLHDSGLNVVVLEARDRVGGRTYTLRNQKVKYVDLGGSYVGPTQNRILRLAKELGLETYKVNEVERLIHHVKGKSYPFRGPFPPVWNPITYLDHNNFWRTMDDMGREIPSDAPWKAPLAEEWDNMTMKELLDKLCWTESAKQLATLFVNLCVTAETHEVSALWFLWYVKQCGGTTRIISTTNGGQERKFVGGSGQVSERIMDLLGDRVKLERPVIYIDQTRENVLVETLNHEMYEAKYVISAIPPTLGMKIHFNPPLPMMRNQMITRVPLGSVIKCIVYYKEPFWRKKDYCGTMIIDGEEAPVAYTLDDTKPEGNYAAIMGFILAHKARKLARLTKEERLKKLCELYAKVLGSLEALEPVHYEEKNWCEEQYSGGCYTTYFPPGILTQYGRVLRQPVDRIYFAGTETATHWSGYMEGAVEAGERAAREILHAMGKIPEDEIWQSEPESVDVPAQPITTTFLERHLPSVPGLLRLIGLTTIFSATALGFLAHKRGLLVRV
Protocol: (§2) We optimized our control hMAO-A and hMAO-B isozymes reactions in the incubation condition, at 37 °C for 1 h, by performing a luminescence assay using the MAO-Glow™ kit. Upon arrival, each isozyme was diluted with 10 mM HEPES in cold HBSS of pH 7.4. Afterward, the diluted isozymes were kept at −80 °C until use. Enzyme concentration optimization was accomplished by testing ten 2X serially diluted hMAO-A and hMAO-B concentrations for a final range of 7.00–0.01 U/mL each. The tested isozymes were incubated with LDS of 40 and 4 μM for isozymes A and B, respectively (recommended by Promega protocol), and a maximum of used DMSO of 1% final concentration. Different isozyme concentrations reactions at their initial velocities were monitored. Consequently, their required concentrations were defined to be 0.44 U/mL each. Additionally, ten different LDS concentrations, ranging from 0.3–150 μM, were monitored for optimizing and validating the linearity of the initial reaction for the hMAO-A mode of action. Subsequently, we chose a saturated substrate of 75 μM as a required concentration for the hMAO-A enzyme kinetic reactions.
(§3) The inhibitory effects of the synthesized KKRs of hMAO-A and B were tested by measuring the decrease in arbitrary light units (ALU) signal produced by the optimized isozymes using the MAO-Glow™ Assay at 37 °C. In this assay, DMSO stock for each KKR compound was diluted with a reaction buffer of pH 7.4 to make a 4X working solution for a maximum final concentration of 100 μM and ≤1% DMSO. The experiments were run in the absence and presence of 4X the miscellaneous standards of MAO-BIs (DEP, PARG, and SAF) and MAO-AIs (PIRL and CLORG), with similar concentrations. In white opaque 96-well microplates, 12.5 μL of each compound was plated at RT and was followed by 25 μL of 2X cold hMAO-A or hMAO-B, for a final concentration of 0.44 U/mL. A related buffer substituted each isozyme to make the blank wells and substituted each compound to make the negative control wells. Following this, we added 12.5 μL of 4X LDS to make a final substrate concentration of 40- and 4-μM for hMAO-A and hMAO-B, respectively. All screen plates were incubated at 37 °C for 60 min. The plates of 50 μL/well were then taken out from the incubator, and their reactions were stopped by an equal volume of 50 μL of reporter luciferin detection reagent (RLDR). After 30 min, the luminescence signals for all plates were read on a Synergy HTX Multi-reader from Bio-Tek (Winooski, VT, USA).

hMAO-A = target: T2, hMAO-A (Homo sapiens, UniProt P21397); test: MAO-Glow luminescence screen of KKRs at 100 μM; format: biochemical; details: 100 μM screen
T2 construct: purchased Sigma-Aldrich Co. (St. Louis, MO, USA)
T2 sequence (P21397 1-527): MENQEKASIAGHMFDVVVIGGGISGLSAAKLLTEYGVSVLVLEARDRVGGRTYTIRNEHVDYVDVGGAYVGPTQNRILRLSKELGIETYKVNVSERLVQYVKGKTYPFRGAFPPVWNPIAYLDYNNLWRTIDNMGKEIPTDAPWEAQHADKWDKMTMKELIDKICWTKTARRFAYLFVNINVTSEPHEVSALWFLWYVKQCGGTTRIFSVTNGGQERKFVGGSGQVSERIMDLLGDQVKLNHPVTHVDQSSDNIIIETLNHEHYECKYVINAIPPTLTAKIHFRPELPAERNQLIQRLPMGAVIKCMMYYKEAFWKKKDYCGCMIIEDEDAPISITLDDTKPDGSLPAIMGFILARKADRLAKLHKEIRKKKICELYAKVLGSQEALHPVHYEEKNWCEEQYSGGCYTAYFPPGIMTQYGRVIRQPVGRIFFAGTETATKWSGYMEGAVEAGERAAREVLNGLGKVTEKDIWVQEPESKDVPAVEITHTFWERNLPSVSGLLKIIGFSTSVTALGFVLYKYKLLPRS
Protocol: as §2, §3

LNCaP cells [5] = test: Antiproliferation dose-response assay for 72 h; format: cell-based; details: Homo sapiens, mean ± SEM of two experiments, read-out: antiproliferative IC50
Protocol: (§4) For the top effective KKRs, along with TAX, their potency to reduce the affected PCa cell line growth in a dose-dependent manner was determined using the resazurin fluorescence assay. We followed the same protocols and materials used for the antiproliferation screen assays (Section 4.3.2), with the following modifications. The maximum final KKR concentration used was 40 μM. The concentration of 8X of each KKR working solution in 1% HEPES 7.4 was serially diluted in a 3:1 ratio, compound to buffer, respectively. Each data set was collected from ten data points of 3.7–40 μM range. The control had the KKR substituted with buffer. The related IC50 averages were analyzed for the compounds that affected the cell lines the most.

PC3 cells [6] = test: Antiproliferation dose-response assay for 72 h; format: cell-based; details: Homo sapiens, PC-3; PC3, 72 h, mean ± SEM of two experiments; read-out: antiproliferative IC50
Protocol: as §4

DU145 cells [7] = test: Antiproliferation dose-response assay for 72 h; format: cell-based; details: Homo sapiens, DU-145; DU145, 72 h, mean ± SEM of two experiments; read-out: antiproliferative IC50
Protocol: as §4

MAO inhibitory property in MAO screen (hMAO-B): did not have MAO inhibitory properties | MAO inhibitory property in MAO screen (hMAO-A): did not have MAO inhibitory properties | IC50 (LNCaP cells [5]): 21 ± 1 µM | IC50 (PC3 cells [6]): 34 ± 1 µM | IC50 (DU145 cells [7]): 9 ± 0.5 µM
SMILES: COc1cc(O)c(C(=O)/C=C/c2cc(OC)c(OC)c(OC)c2)c(OC)c1 [KKR17, (E)-1-(2-hydroxy-4,6-dimethoxyphenyl)-3-(3,4,5-trimethoxyphenyl)prop-2-en-1-one]
cytotoxicity / cell viability (LNCaP cells [1]): affected the LNCaP cells | antiproliferative effect in screen (LNCaP cells [2]): top five KKRs that kept standing out with antiproliferative effects | antiproliferative effect in screen (PC3 cells [3]): effective against all investigated cell lines, including the metastatic PC3 | antiproliferative effect in screen (DU145 cells [4]): top effective
